assay: recombinant barcode read abundance after kanamycin selection (control-corrected) (log10(CPM+1)); higher = more efficient recombination; sequences stand for … in AGTGCAGAGAAAATCGGCCAGTTTTCTCTGCCTGCAGTCCGCATGCCGT…AGATTTATGCAGCGGACTGCCTTTCTCCCAAAGTGATAAACCGGACAGTATCATGGACCGGTTTTCCCGGTAATCCGTATTTGCAAGGTTGGTTTCACT; site = the 11-nt target
How it was run: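 Oligos holding a promoter, target, barcode and the J23119-driven first 104 bases of the bridge RNA were Gibson-cloned into a vector that supplied the other 73 bp plus a T7-inducible recombinase. This library was co-electroporated with a donor plasmid into E. coli. Two replicates went on chloramphenicol/ampicillin LB agar (control) and two on chloramphenicol/ampicillin/kanamycin with 0.1 mM IPTG. Recombination efficiency is read from averaged, control-corrected barcode counts per million at recombinant junctions, reported as log10(CPM+1).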
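Note: IS621 recombinase and bridge RNA in Escherichia coli cells.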

Row | Sequence | recombinant barcode read abundance (log10)
1 | TGCCACCCTTGGGTTCTAACCTGTTGCGT (site TGCCACCCTAC) | 2.14
2 | TGCCCCGCTTGGGTTCTAACCTGTTGCCT (site ACTTAGTCTGA) | 0.341
3 | TGCCCCGCTTGGGTTCTAACCTGTTGCCT (site TGCCCCGCTAG) | 1.11
4 | TGCCGAACTTGGGTTCTAACCTGTTGCCT (site AGCCGAACTAG) | 0.0709
5 | TGCCGAACTTGGGTTCTAACCTGTTGCCT (site CGCCGAACTAG) | 0.16
6 | TGCCGAACTTGGGTTCTAACCTGTTGCCT (site GGCCGAACTAG) | 0.0503
7 | TGCCGAACTTGGGTTCTAACCTGTTGCCT (site TGCCGAACTAG) | 0.161
8 | TGCCGCTCTTGGGTTCTAACCTGTTGCCT (site TGACGCTCTAG) | 1.35
9 | TGCCGCTCTTGGGTTCTAACCTGTTGCCT (site TGCCGCTCTAG) | 1.24
10 | TGCCGCTCTTGGGTTCTAACCTGTTGCCT (site TGGCGCTCTAG) | 0.277
11 | TGCCGCTCTTGGGTTCTAACCTGTTGCCT (site TGTCGCTCTAG) | 0.0629
12 | TGCGACCCTTGGGTTCTAACCTGTTGCTT (site TGCGACCCTAA) | 1.74
13 | TGCGACCCTTGGGTTCTAACCTGTTGCTT (site TGGGACCCTAT) | 0.312
14 | TGCGACTCTTGGGTTCTAACCTGTTGCCT (site TGAGACTCTAG) | 1.47
15 | TGCGACTCTTGGGTTCTAACCTGTTGCCT (site TGCGACTCTAG) | 1.5
16 | TGCGACTCTTGGGTTCTAACCTGTTGCCT (site TGGGACTCTAG) | 0.0561
17 | TGCGACTCTTGGGTTCTAACCTGTTGCCT (site TGTGACTCTAG) | 0.0576
18 | TGCGTAACTTGGGTTCTAACCTGTTGCCA (site GAACCTCCTAT) | 0.0676
19 | TGCGTAACTTGGGTTCTAACCTGTTGCCA (site TGCGTAACTTG) | 0.104
20 | TGCTCTACTTGGGTTCTAACCTGTTGCTG (site TGCTCTACTCA) | 0.00915
21 | TGCTCTACTTGGGTTCTAACCTGTTGCTG (site TGTTCTACTCG) | 0.114
22 | TGGACTTCTTGGGTTCTAACCTGTTGCTT (site TGGAATTCTAA) | 0.0677

Row | Sequence | recombinant barcode read abundance (log10)
23 | TGGACTTCTTGGGTTCTAACCTGTTGCTT (site TGGACTTCTAA) | 0.0981
24 | TGGAGCCCTTGGGTTCTAACCTGTTGCTT (site TGGAGCCCTAA) | 0.463
25 | TGGAGCCCTTGGGTTCTAACCTGTTGCTT (site TGGAGTCCTAA) | 0.136
26 | TGGAGTACTTGGGTTCTAACCTGTTGCTT (site TGGAGTACTAA) | 1.02
27 | TGGAGTACTTGGGTTCTAACCTGTTGCTT (site TGTAGTACTAG) | 0.0535
28 | TGGATTCCTTGGGTTCTAACCTGTTGCCT (site TGGATTCCTAG) | 0.223
29 | TGGATTCCTTGGGTTCTAACCTGTTGCCT (site TGGATTGCTAG) | 0.392
30 | TGGCAATCTTGGGTTCTAACCTGTTGCCT (site ACCTCGGCTCA) | 0.556
31 | TGGCAATCTTGGGTTCTAACCTGTTGCCT (site TGGCAATCTAG) | 0.257
32 | TGGCCCTCTTGGGTTCTAACCTGTTGCTA (site TGGCCCTCTAA) | 1.1
33 | TGGCCCTCTTGGGTTCTAACCTGTTGCTA (site TGGCCCTCTCA) | 0.0705
34 | TGGCCCTCTTGGGTTCTAACCTGTTGCTA (site TGGCCCTCTGA) | 0.0109
35 | TGGCCCTCTTGGGTTCTAACCTGTTGCTA (site TGGCCCTCTTA) | 2.03
36 | TGGCCCTCTTGGGTTCTAACCTGTTGCTG (site TGGCCCTCTAA) | 0.784
37 | TGGCCCTCTTGGGTTCTAACCTGTTGCTG (site TGGCCCTCTCA) | 2.31
38 | TGGCCCTCTTGGGTTCTAACCTGTTGCTG (site TGGCCCTCTGA) | 0.0444
39 | TGGCCCTCTTGGGTTCTAACCTGTTGCTG (site TGGCCCTCTTA) | 0.111
40 | TGGCCTTCTTGGGTTCTAACCTGTTGCCT (site TAGCCTTCTAG) | 0.0963
41 | TGGCCTTCTTGGGTTCTAACCTGTTGCCT (site TCGCCTTCTAG) | 0.0688
42 | TGGCCTTCTTGGGTTCTAACCTGTTGCCT (site TGGCCTTCTAG) | 0.781
43 | TGGCCTTCTTGGGTTCTAACCTGTTGCCT (site TTGCCTTCTAG) | 0.0528

Reference: the supplement of paper PMC11208160
